The source of these data is patent publication US7405051B2, “Method of screening antiplatelet agents” (Astellas Pharma Inc., priority 2000, dated 2008).

Each structure is given as a SMILES string.

Usually EC50 stands for the midpoint of the concentration-response curve. Usually IC50 stands for the concentration needed to halve the response being measured.

The subject of assay [1] is C6-15 cells transfected with pEF-BOS-dhfr (empty vector) and pEF-BOS-Gqi. Briefly: Intracellular Ca2+ concentration in control C6-15 cells transfected with empty vector and Gqi. The format is cell-based, rat. Particulars: empty vector plus Gqi control cells; 3x10^-5 to 1x10^-12 mol/L. The method, then:
The C6-15 cells were seeded on a 96-well plate (96 well Black/clear bottom plate, collagen I coated; manufactured by BECTON DICKINSON) so that the concentration of cells became 2×10^4 cells/well. After culturing for 48 hours, a gene transfection was carried out by using a transfection reagent (LipofectAMINE 2000; manufactured by GIBCO BRL) and the combination of the plasmid pEF-BOS-dhfr-HORK3 (50 ng/well) and the plasmid pEF-BOS-Gqi (50 ng/well). As a control, a gene transfection was carried out by using the combination of the plasmid pEF-BOS-dhfr (i.e., an empty vector without the HORK3 gene) and the plasmid pEF-BOS-Gqi, instead of the combination of the plasmid pEF-BOS-dhfr-HORK3 and the plasmid pEF-BOS-Gqi. […]
A time course of the change in the intracellular Ca^2+ concentration was measured by using FLIPR (manufactured by Molecular Device). More particularly, after 10 seconds from the beginning of measurement, 2MeSADP or ADP was added to wells to a final concentration of 3×10^−5 mol/L to 1×10^−12 mol/L. After the addition, each fluorescence intensity was measured at an interval of 1 second for 50 seconds, and then at an interval of 6 seconds for 4 minutes. […]

Assay [2] has as its target T1, HORK3 protein (human ADP receptor P2TAC) (Homo sapiens, UniProt Q9H244). Briefly: Inhibition of forskolin-stimulated cAMP production in CHO cell expressing HORK3 protein. To be noted: CHO-dhfr(-) cells expressing HORK3; 3 μmol/L forskolin; 37° C. 30 minutes; read-out: EC50, responsiveness against the HORK3 protein (decrease of cAMP produced by forskolin). Format: cell-based. The text has this: It was found from Example 3 that the ADP receptor was a Gi-coupled receptor, and thus it is expected that the ADP receptor has an activity of suppressing the adenylate cyclase activity. […] In this connection, a dihydrofolate reductase (DHFR; an essential enzyme for de novo synthesis of nucleic acids) defective cell line [CHO-dhfr(−) line] was used in the present example. The plasmid pEF-BOS-dhfr-HORK3 was used as an expression plasmid to be used for expressing the HORK3 protein. The CHO-dhfr(−) line was seeded on each 10 cm-petri dish (1×10^6 cells/dish) by using an αMEM (with nucleic acids) medium. […] As a control, a gene transfection was carried out by using the plasmid pEF-BOS-dhfr (i.e., an empty vector without the HORK3 gene), instead of the plasmid pEF-BOS-dhfr-HORK3. After 24 hours from the gene transfection procedure, the transfected cells were taken and suspended in an αMEM (without nucleic acids) medium containing 100 nmol/L methotrexate (a competitive inhibitor of DHFR; manufactured by Wako Pure Chemical Industries). Each suspension was gradually diluted and reseeded on each 10 cm-petri dish. […] The amount of cAMP produced in each cell under each condition was measured by using the cAMP-EIA system in accordance with a protocol attached thereto.
On the technique in general: Changes in cAMP serve as a functional read-out for many G protein-coupled receptors.

In assay [3] the test system is CHO cell transfected with the empty vector. The assay is described as follows: Forskolin-stimulated cAMP production in control CHO cell transfected with the empty vector. Format: cell-based, Chinese hamster. Particulars: 3 μmol/L forskolin. The method, then: The CHO-dhfr(−) line was seeded on each 10 cm-petri dish (1×10^6 cells/dish) by using an αMEM (with nucleic acids) medium. After culturing for 1 day, a gene transfection was carried out by using a transfection reagent (LipofectAMINE 2000; manufactured by GIBCO BRL) and the plasmid pEF-BOS-dhfr-HORK3 (8 μg). As a control, a gene transfection was carried out by using the plasmid pEF-BOS-dhfr (i.e., an empty vector without the HORK3 gene), instead of the plasmid pEF-BOS-dhfr-HORK3.
After 24 hours from the gene transfection procedure, the transfected cells were taken and suspended in an αMEM (without nucleic acids) medium containing 100 nmol/L methotrexate (a competitive inhibitor of DHFR; manufactured by Wako Pure Chemical Industries). Each suspension was gradually diluted and reseeded on each 10 cm-petri dish. Colonies which appeared after 2 weeks were individually taken, and used as a CHO cell expressing the HORK3 protein or a control CHO cell transfected with the empty vector in the following experiment.
The CHO cells expressing the HORK3 protein or the CHO cells transfected with the empty vector were seeded on a 24-well plate (1×10^5 cells/well). […]
The amount of cAMP produced in each cell under each condition was measured by using the cAMP-EIA system in accordance with a protocol attached thereto. […]

Assay [4] concerns the target T1, HORK3 protein (human ADP receptor P2TAC). Briefly: Forskolin-stimulated cAMP production in C6-15 cell expressing HORK3 protein (cAMP HTRF). Format: cell-based. To be noted: C6-15 cells expressing HORK3; for EC50: 1 μmol/L forskolin, 37° C. 30 minutes, read-out: EC50, responsiveness against the HORK3 protein (decrease of cAMP produced by forskolin).
Procedure: The C6-15 cells expressing the HORK3 protein were seeded on a 96-well plate (1×10^4 cells/well). After culturing for 1 day, cells were treated with a DMEM medium containing 1 mmol/L 3-isobutyl-1-methylxanthine (manufactured by Sigma) and 0.1% BSA for 10 minutes, and then the combination of 1 μmol/L forskolin (manufactured by Wako Pure Chemical Industries) and 2MeSADP (a final concentration=1×10^−12 to 1×10^−7 mol/L), or the combination of 1 μmol/L forskolin and ADP (a final concentration=1×10^−10 to 1×10^−5 mol/L) was added dropwise. After incubating at 37° C. for 30 minutes, the culture supernatant was discarded, and then cells were dissolved in PBS containing 0.2% Triton X-100.
The amount of cAMP produced in each cell under each condition was measured by using a cAMP HTRF kit (manufactured by CIS bio international) in accordance with a protocol attached thereto. When the amount of cAMP produced by stimulating with 1 μmol/L forskolin alone was regarded as 100%, a concentration-dependent curve for the amount of cAMP in the presence of 2MeSADP or ADP was drawn.
Next, effects of compounds, which are known to suppress the platelet aggregation, on the suppression of the amount of cAMP produced by the forskolin stimulus in the C6-15 cell expressing the HORK3 protein by 2MeSADP were examined. […] After incubating at 37° C. for 30 minutes, the culture supernatant was discarded, and then cells were dissolved in PBS containing 0.2% Triton X-100. The amount of cAMP produced was measured by using the cAMP HTRF kit in accordance with a protocol attached thereto. When the amount of cAMP produced by stimulating with 1 μmol/L forskolin alone was regarded as 0%, and that by stimulating with the combination of 1 μmol/L forskolin and 10 nmol/L 2MeSADP was regarded as 100%, a concentration-dependent curve of each inhibitor was drawn.
For assay [5] the target is unchanged. The assay is described as follows: Increase in intracellular Ca2+ concentration in C6-15 cell co-expressing HORK3 protein and Gqi (FLIPR). Format: cell-based. On the set-up: expressed in transfected cells; host or cells: C6-15 rat glioma cells, transient co-transfection of pEF-BOS-dhfr-HORK3 and pEF-BOS-Gqi. To be noted: C6-15 cells transfected with pEF-BOS-dhfr-HORK3 and pEF-BOS-Gqi; peak values, Logistic regression. The protocol:
When most purines such as ADP, 2MeSADP (2-methylthio-ADP), or the like are added to a cell, the increase in intracellular Ca^2+ via an endogenous cellular membrane receptor is observed. […] In the present example, the C6-15 cell was used to express the HORK3 protein.
Further, the plasmid pEF-BOS-dhfr-HORK3 obtained in Example 1 was used as an expression plasmid to be used for expressing the HORK3 protein. […]
A time course of the change in the intracellular Ca^2+ concentration was measured by using FLIPR (manufactured by Molecular Device). More particularly, after 10 seconds from the beginning of measurement, 2MeSADP or ADP was added to wells to a final concentration of 3×10^−5 mol/L to 1×10^−12 mol/L. After the addition, each fluorescence intensity was measured at an interval of 1 second for 50 seconds, and then at an interval of 6 seconds for 4 minutes.
The change of the intracellular Ca^2+ concentration by 2MeSADP or ADP in the cells to which the plasmid pEF-BOS-dhfr-HORK3 and the plasmid pEF-BOS-Gqi had been transfected was measured, each peak value in various concentrations of 2MeSADP or ADP was plotted, and then the dependency upon the concentration was analyzed by using a Logistic regression method.

For assay [6] the target is unchanged. The assay is described as follows: [3H]-2MeSADP binding assay on membrane fraction of C6-15 cell expressing HORK3 protein. Particulars: 1 nmol/L [3H]-2MeSADP; 20 μg membrane fraction; room temperature 2 hours. From the text:
The C6-15 cells expressing the HORK3 protein prepared in Example 5 were taken and washed, and then suspended in 20 mmol/L Tris-HCl (pH7.4) containing 5 mmol/L EDTA and a protease inhibitor cocktail set (Complete™; manufactured by Boeringer Mannheim). The whole was homogenized by using a POLYTRON, and ultracentrifuged. The pellet was suspended in 50 mmol/L Tris-HCl (pH7.4) containing 1 mmol/L EDTA, 100 mmol/L NaCl, 0.1% BSA, and Complete™ to obtain a membrane fraction.
After [^3H]-2MeSADP (manufactured by Moravek Biochemical) was added to 20 μg of the membrane fraction as a final concentration of 0.25 to 50 nmol/L, and was incubated in 250 μL of 50 mmol/L Tris-HCl (pH7.4) containing 1 mmol/L EDTA, 100 mmol/L NaCl, 0.1% BSA, and Complete™ at room temperature for 1 hour, the whole was collected on a glass filter by using a cell harvester. A microscintillator was added to the glass filter, and then a total amount of binding to the membrane fraction was measured by using a liquid scintillation counter. Further, an amount of non-specific binding to the membrane fraction was measured by adding 2MeSADP (a final concentration=50 μmol/L) in the above assay.
A microscintillator was added to the glass filter, and then radioactivity was measured by using a liquid scintillation counter. Further, radioactivity was measured by not adding the compound and by adding 2MeSADP (a final concentration=10 μmol/L) in the above assay, as a total amount of binding and an amount of non-specific binding, respectively.

Assay [7] concerns ADP-induced platelet aggregation of human PRP. The assay is described as follows: ADP-induced human platelet aggregation in platelet-rich plasma (aggregometer). The format is cell-based. Particulars: sodium citrate, ADP 20 to 200 μmol/L added as inducer, FIGS. 1 and 2. The protocol: Blood was collected from a healthy person (adult) by using 1/10 volume of sodium citrate, and then platelet-rich plasma(PRP) was prepared in accordance with a method of De Marco et al. (J. Clin. Invest., 77, 1272-1277, 1986). The PRP was used after preparing it to 3×10^8 cells/mL by using an automatic blood cell counter (MEK6258; Nihon Kohden Corporation). As an inducer of aggregation, ADP which is a product manufactured by MC Medical Corporation was used.
The platelet aggregation was measured by using an aggregometer (MCM Hema Tracer 212; MC Medical Corpration). […] Changes of a transmitted light were recorded for 10 minutes, and then an aggregation inhibition (%) was calculated from the maximum aggregation rate.
The data for 2MeSAMP (FIG. 1) are represented by the “average” of the experiment results obtained by using two volunteers. […] The inhibitory strength was dependent on the concentration of ADP as an inducer.

T1 sequence (Q9H244 whole entry): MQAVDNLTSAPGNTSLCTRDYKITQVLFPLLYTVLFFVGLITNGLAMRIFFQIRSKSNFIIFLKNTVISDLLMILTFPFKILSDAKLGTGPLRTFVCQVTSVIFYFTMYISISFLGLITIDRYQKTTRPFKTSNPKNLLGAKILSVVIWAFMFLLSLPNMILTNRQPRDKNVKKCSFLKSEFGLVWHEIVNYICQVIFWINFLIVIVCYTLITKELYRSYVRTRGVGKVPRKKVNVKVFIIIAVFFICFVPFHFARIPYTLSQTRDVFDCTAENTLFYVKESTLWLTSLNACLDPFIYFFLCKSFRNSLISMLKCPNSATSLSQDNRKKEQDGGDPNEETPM

As to `CSc1nc(N)c2ncn([C@@H]3O[C@H](COP(=O)(O)OP(=O)(O)O)[C@@H](O)[C@H]3O)c2n1` [2MeSADP, 2-methylthio-ADP], the “change of the intracellular Ca2+ concentration” value in assay [1] is listed as “not observed”. Also, the EC50 in assay [2] worked out at 0.07 nM; in assay [4], 0.08 nM; in assay [5], 5.4 nM. For the same molecule, the “changes in the amount of cAMP produced by the forskolin stimulus” value in assay [3] is listed as “no changes”.
In the case of `CSc1nc(N)c2ncn([C@@H]3O[C@H](COP(=O)(O)O)[C@@H](O)[C@H]3O)c2n1` [2MeSAMP, 2-methylthio-adenosine monophosphate], the IC50 was found to be 5000 nM in assay [4] (1 μmol/L forskolin and 10 nmol/L 2MeSADP, read-out: IC50, inhibitory effect on the suppression by 2MeSADP in the amount of cAMP produced by the forskolin stimulus); 4900 nM in assay [6]. Also, the “inhibition of ADP-induced platelet aggregation” value in assay [7] is recorded as “inhibited the ADP-induced platelet aggregation concentration-dependently”.
As to `Nc1ncnc2c1ncn2[C@@H]1O[C@H](COP(=O)(O)OP(=O)(O)O)[C@@H](O)[C@H]1O` [ADP, adenosine 5′-diphosphate], in assay [1], the “change of the intracellular Ca2+ concentration” value is recorded as “not observed”. The EC50 in assay [2] amounted to 35 nM; in assay [4] it was 42 nM; in assay [5] it was 220 nM. Further, the “changes in the amount of cAMP produced by the forskolin stimulus” value in assay [3] is “no changes”.
On to `CSCCNc1nc(SCCC(F)(F)F)nc2c1ncn2[C@@H]1O[C@H](COP(=O)(O)OP(=O)(O)C(Cl)(Cl)P(=O)(O)O)[C@@H](O)[C@H]1O` [AR-C69931MX, N6-[2-methylthioethyl]-2-[3,3,3-trifluoropropylthio]-5′-ade nylic acid, monoanhydride with dichloromethylenebiphosphonic acid], for which, in assay [7], the “inhibition of ADP-induced platelet aggregation” value is reported as “inhibited the ADP-induced platelet aggregation concentration-dependently”.
